Source: PMC12299904, “Purine–Hydrazone Scaffolds as Potential Dual EGFR/HER2 Inhibitors” (Pharmaceuticals, 2025)
“And” between values parts separate entries of the source, which are not always exact repeats. Equal values may be shown once. “Also recorded” adds a separate entry of the source. Read-outs that look alike come from different tables or passages of the source.

Key:
A549 cells [1] = test: In vitro cytotoxicity assay (MTT), A549; conditions: for viability at 10 µM / IC50: Homo sapiens, A549, 48 h; for viability at 10 µM: read-out: percentage of cell viability, A549; for Selectivity index (SI), A549: IC50 against MRC-5/IC50 against A549
Procedure: (§1) The selected cell lines include A549, a lung cancer cell line that is characterized by its high expression of EGFR; SKOV-3, an ovarian cancer cell line, selected for its overexpression of both EGFR and HER2; and the breast cancer cell line (SKBR-3), characterized by HER2 overexpression.
(§2) Cells were passaged regularly at around 80% confluency using […] and maintained in 75 cm^2 flasks at 37 °C in a humidified atmosphere containing 5% CO2.
(§3) Approximately 10 × 10^3 cells were seeded per well of the 96-well plates using drug-free media and incubated for 24 h. […] After 48 h of drug exposure, the supernatant was aspirated, and the cells were washed with 100 μL of PBS. The MTT assay was performed by creating a stock solution of MTT at a concentration of 5 mg/mL in PBS. From this stock, a solution of MTT in the cell culture media was prepared to achieve a final concentration of 0.5 mg/mL. […] The MTT solution was thereafter removed, and the generated formazan crystals were dissolved by adding 100 μL of propanol/DMSO (50:50) per well. Absorbance was measured at 570 nm, and IC50 values for each compound were calculated by comparison against negative untreated controls.

SKOV-3 cells = test: In vitro cytotoxicity assay (MTT), SKOV-3; type: cell-based, human; conditions: for viability at 10 µM: SK-OV-3, read-out: percentage of cell viability, SKOV-3; for viability at 10 µM / IC50: 48 h, MTT; for IC50: mean ± SD, three experiments; for Selectivity index (SI), SKOV-3: IC50 against MRC-5/IC50 against SKOV-3
Procedure: as §1, §2, §3

A2780 cells = test: In vitro cytotoxicity assay (MTT), A2780; type: cell-based; conditions: Homo sapiens, 48 h, read-out: percentage of cell viability, A2780
[2] = test system: A549, SKOV-3, A2780, SKBR-3 cells; test: MTT assay, ranges stated over several cell lines; type: cell-based, human; conditions: Homo sapiens; 10 µM, 48 h; A549 and SKOV-3; read-out: cell viability range for A549 and SKOV-3
Procedure: as §1, §2, §3

A549 cells [3] = test: Apoptosis analysis (Annexin V-FITC/PI, flow cytometry); type: cell-based, human; conditions: A549, IC50 concentration, 24 h; for Apoptosis, Early / Apoptosis, Late / Necrosis: mean ± SD, % printed in text only
Procedure: Briefly, in flat-bottom 6-well plates, a total of 3 × 10^5 A549 cells were seeded per well and maintained at 37 °C for 24 h in a CO2 humidified atmosphere. Next, the cells were subjected to treatment with the equipotent concentration (1xIC50) of the tested compounds in the cell culture media. Following a 24 h incubation period, the supernatant was removed by suction, and attached cells were washed with PBS and collected using trypsin. Following the quenching of trypsin with culture media, the cells were resuspended as a single cell suspension in Annexin V binding buffer with 1% (v/v) propidium iodide and 1% (v/v) Annexin V-FITC. Negative (untreated) control samples were also included in the experiment. The samples were analyzed using flow cytometry, reading PI at Em. 617 nm, Ex. 535 nm, and Annexin-V-FITC at Em. 520 nm, Ex. 488 nm, while collecting 20,000 events/sample.

EGFR = target: T1, EGFR (Homo sapiens, UniProt P00533); test: In vitro enzyme inhibition assay, EGFR Kinase Assay Kit (BPS Bioscience); type: biochemical; conditions: three independent experiments; read-out: Protein Kinase Inhibition IC50, EGFR
T1 construct: purchased BPS Bioscience 40321
T1 sequence (P00533 25-1210): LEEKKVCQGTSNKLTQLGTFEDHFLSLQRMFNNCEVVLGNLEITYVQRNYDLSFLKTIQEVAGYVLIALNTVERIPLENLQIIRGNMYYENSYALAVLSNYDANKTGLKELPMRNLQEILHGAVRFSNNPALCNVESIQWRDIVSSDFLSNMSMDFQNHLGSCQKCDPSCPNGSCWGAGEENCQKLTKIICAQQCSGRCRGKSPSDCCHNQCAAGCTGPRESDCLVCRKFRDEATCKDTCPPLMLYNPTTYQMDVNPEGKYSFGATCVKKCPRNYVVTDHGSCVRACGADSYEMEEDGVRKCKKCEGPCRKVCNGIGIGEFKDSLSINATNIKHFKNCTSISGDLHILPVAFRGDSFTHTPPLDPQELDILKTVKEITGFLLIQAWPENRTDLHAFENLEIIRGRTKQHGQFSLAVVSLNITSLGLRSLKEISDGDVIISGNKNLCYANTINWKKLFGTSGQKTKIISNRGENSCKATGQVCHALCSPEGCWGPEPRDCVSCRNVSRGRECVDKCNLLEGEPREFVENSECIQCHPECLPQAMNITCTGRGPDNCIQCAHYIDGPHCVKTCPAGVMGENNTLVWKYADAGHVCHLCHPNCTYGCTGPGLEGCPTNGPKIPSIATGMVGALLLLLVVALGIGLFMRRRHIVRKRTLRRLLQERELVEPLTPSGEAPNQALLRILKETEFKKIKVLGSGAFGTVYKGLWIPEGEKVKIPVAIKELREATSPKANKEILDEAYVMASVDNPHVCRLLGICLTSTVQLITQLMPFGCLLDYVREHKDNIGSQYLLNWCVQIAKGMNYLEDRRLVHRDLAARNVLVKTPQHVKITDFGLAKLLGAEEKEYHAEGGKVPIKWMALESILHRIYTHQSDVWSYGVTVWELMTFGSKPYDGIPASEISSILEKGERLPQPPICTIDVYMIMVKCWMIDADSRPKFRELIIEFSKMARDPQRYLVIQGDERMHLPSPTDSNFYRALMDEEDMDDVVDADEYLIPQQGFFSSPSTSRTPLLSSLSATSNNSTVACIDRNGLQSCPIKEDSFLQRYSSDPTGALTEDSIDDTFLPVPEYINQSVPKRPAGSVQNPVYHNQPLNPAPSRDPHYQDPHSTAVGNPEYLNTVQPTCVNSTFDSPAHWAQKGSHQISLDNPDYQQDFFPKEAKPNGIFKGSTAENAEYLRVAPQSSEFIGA

A549 cells [4] = test: Cell cycle assay (PI, flow cytometry); type: cell-based, human; conditions: A549, IC50 concentration; for Cell cycle comment / DNA Content (%) %G0–G1 / DNA Content (%) %G2/M / DNA Content (%) %S: 24 h; for DNA Content (%) %G0–G1 / DNA Content (%) %G2/M / DNA Content (%) %S: mean ± SD; for Cell Cycle Distribution Index (CDI): CDI = (G2/M + S)/(G0–G1)
Procedure: In a flat-bottom 6-well plate, 3 × 10^5 A549 cells were seeded per well and incubated at 37 °C for 24 h to allow attachment. […] Following a 24 h incubation period, the supernatant was removed by suction, and adherent cells were washed with PBS and collected with trypsin. Additionally, negative control (untreated) samples were also prepared. The cells were resuspended in 2 mL of 80% v/v of cold methanol for 45 min to achieve fixation. After centrifugation, the methanol was discarded, and the resulting cell pellets were washed and stained at room temperature for 30 min in the dark using propidium iodide PI (10% v/v of a 1 mg/mL stock solution in PBS) and RNAse (15% v/v of a 1 mg/mL stock solution in PBS). The cells were analyzed using flow cytometry, reading histograms in the red channel adjusted to PI (Em. 617 nm, Ex. 535 nm).

SKBR-3 cells = test: In vitro cytotoxicity assay (MTT), SKBR-3; type: cell-based, human; conditions: for IC50: MTT, 48 h, mean ± SD, three experiments; for Selectivity index (SI), SKBR-3: IC50 against MRC-5/IC50 against SKBR-3
Procedure: as §1, §2, §3

[5] = In vitro cytotoxicity assay (MTT), normal cell line MRC-5; type: cell-based; conditions: MRC-5 normal embryonic lung cells, normal human embryonic lung cell line, mean ± SD
Procedure: as §2, §3

HER2 = target: T2, HER2 (Homo sapiens, UniProt P04626); test: In vitro enzyme inhibition assay, HER2 Kinase Assay Kit (BPS Bioscience); type: biochemical; conditions: three independent experiments; read-out: Protein Kinase Inhibition IC50, HER2
T2 construct: purchased BPS Bioscience 40721
T2 sequence (P04626 23-1255): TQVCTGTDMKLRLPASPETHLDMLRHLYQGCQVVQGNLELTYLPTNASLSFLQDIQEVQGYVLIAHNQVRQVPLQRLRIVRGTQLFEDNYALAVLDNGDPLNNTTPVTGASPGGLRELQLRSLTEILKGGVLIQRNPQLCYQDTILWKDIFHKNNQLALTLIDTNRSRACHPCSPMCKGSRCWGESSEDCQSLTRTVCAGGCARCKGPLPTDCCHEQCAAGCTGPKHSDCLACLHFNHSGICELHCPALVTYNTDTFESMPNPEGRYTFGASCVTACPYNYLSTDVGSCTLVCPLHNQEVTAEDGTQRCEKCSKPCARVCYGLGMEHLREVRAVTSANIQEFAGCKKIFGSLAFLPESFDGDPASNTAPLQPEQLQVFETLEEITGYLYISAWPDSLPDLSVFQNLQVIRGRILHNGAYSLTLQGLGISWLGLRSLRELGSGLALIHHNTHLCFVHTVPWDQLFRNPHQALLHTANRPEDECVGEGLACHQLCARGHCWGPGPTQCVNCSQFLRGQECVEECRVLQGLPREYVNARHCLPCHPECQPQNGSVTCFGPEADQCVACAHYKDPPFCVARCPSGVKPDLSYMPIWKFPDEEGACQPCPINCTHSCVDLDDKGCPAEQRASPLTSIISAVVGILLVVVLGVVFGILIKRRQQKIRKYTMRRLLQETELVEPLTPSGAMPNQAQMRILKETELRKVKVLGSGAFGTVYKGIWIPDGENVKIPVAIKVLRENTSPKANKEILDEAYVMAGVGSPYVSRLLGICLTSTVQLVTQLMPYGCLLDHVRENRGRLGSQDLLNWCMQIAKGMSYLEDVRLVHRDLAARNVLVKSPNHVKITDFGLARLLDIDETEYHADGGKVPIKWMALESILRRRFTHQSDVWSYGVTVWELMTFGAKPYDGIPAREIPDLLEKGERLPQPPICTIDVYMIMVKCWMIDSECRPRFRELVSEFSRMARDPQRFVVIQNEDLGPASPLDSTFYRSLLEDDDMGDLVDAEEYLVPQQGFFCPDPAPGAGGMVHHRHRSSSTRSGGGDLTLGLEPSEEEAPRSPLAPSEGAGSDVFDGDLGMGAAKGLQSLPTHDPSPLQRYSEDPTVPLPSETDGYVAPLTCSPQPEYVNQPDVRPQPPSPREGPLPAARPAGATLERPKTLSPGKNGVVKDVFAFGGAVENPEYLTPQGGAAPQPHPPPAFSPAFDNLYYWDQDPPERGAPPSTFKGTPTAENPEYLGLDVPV

[6] = read-out: Cytotoxicity (IC50), A549, MTT, 48 h, mean ± SD, three experiments

## O=C(N/N=C/c1ccccc1)c1ccc(Nc2ncnc3nc[nH]c23)cc1 [6a, (E)-4-((7H-Purin-6-yl)amino)-N′-benzylidenebenzohydrazide]
A549 cells [1]
  viability at 10 µM: 63%
SKOV-3 cells; Homo sapiens
  viability at 10 µM: 85%

## O=C(N/N=C/c1ccccc1)c1ccc(Nc2ncnc3c2ncn3C2CCCC2)cc1 [6b, (E)-N′-benzylidene-4-((9-cyclopentyl-9H-purin-6-yl)amino)benzohydrazide]
A549 cells [1]
  viability at 10 µM: 50%
A2780 cells
  viability at 10 µM: 52%
SKOV-3 cells; Homo sapiens
  viability at 10 µM: 60%

## N#Cc1ccc(/C=N/NC(=O)c2ccc(Nc3ncnc4nc[nH]c34)cc2)cc1 [7a, (E)-4-((7H-Purin-6-yl)amino)-N′-(4-cyanobenzylidene)benzohydrazide]
A549 cells [1]
  viability at 10 µM: 50%
SKOV-3 cells; Homo sapiens
  viability at 10 µM: 58%

## COc1cccc(/C=N/NC(=O)c2ccc(Nc3ncnc4nc[nH]c34)cc2)c1 [12a, (E)-4-((7H-Purin-6-yl)amino)-N′-(3-methoxybenzylidene)benzohydrazide]
A549 cells [1]
  viability at 10 µM: 75%

## COc1ccc(/C=N/NC(=O)c2ccc(Nc3ncnc4nc[nH]c34)cc2)cc1 [13a, (E)-4-((7H-Purin-6-yl)amino)-N′-(4-methoxybenzylidene)benzohydrazide]
A549 cells [1]
  viability at 10 µM: 86%

## O=C(N/N=C/c1ccc([N+](=O)[O-])cc1)c1ccc(Nc2ncnc3nc[nH]c23)cc1 [15a, (E)-4-((7H-Purin-6-yl)amino)-N′-(4-nitrobenzylidene)benzohydrazide]
A549 cells [1]
  viability at 10 µM: 49%
SKOV-3 cells; Homo sapiens
  viability at 10 µM: 44%

## O=C(N/N=C/c1cccc(C(F)(F)F)c1)c1ccc(Nc2ncnc3nc[nH]c23)cc1 [16a, (E)-4-((7H-Purin-6-yl)amino)-N′-(3-(trifluoromethyl)benzylidene)benzohydrazide]
A549 cells [1]
  viability at 10 µM: 68%
SKOV-3 cells; Homo sapiens
  viability at 10 µM: 69%

## O=C(N/N=C/c1ccc(F)c(C(F)(F)F)c1)c1ccc(Nc2ncnc3nc[nH]c23)cc1 [17a, (E)-4-((7H-Purin-6-yl)amino)-N′-(4-fluoro-3-(trifluoromethyl)benzylidene) benzohydrazide]
A549 cells [1]
  viability at 10 µM: 59%
SKOV-3 cells; Homo sapiens
  viability at 10 µM: 63%

## COc1cc(C)c(/C=N/NC(=O)c2ccc(Nc3ncnc4c3ncn4C3CCCC3)cc2)cc1C [18b, (E)-4-((9-cyclopentyl-9H-purin-6-yl)amino)-N′-(4-methoxy-2,5-dimethylbenzylidene) benzohydrazide]
[2]
  viability at 10 µM: 81 to 100%

## O=C(N/N=C/c1cccc(-c2ccccc2)c1)c1ccc(Nc2ncnc3nc[nH]c23)cc1 [19a, (E)-4-((7H-purin-6-yl)amino)-N′-([1,1′-biphenyl]-3-ylmethylene)benzohydrazide]
A549 cells [3]
  percentage of live cells: 62.3%
  Apoptosis, Early: 9.72% and 9.72 ± 1.06 %
  Apoptosis, Late: 23.13% and 23.13 ± 0.73 %
  Necrosis: 4.84 ± 0.34%
EGFR
  IC50: 80 nM and 81 nM
A549 cells [4]
  Cell cycle comment: cell cycle arrest at the G1 phase
  DNA Content (%) %G0–G1: 86.9% and 86.88% and 86.88 ± 0.95 %
  DNA Content (%) %G2/M: 3.9% and 3.90 ± 1.22 %
  DNA Content (%) %S: 9.2% and 9.21% and 9.21 ± 1.43 %
  Cell Cycle Distribution Index (CDI): 0.15
SKBR-3 cells; Homo sapiens, SK-BR-3, 48 h
  IC50: 1410 nM
SKBR-3 cells
  Selectivity index (SI), SKBR-3: 37.03
  IC50: 1410 ± 362 nM
A549 cells [1]; [6]
  IC50: 810 ± 139 nM
A549 cells [1]
  viability at 10 µM: 39%
  Selectivity index (SI), A549: 64.6
[5]
  IC50 at 48 h: 52360 ± 283 nM
A2780 cells
  viability at 10 µM: 18%
HER2
  IC50: 59 ± 2 nM
SKOV-3 cells; Homo sapiens, SK-OV-3, 48 h
  IC50: 2190 ± 160 nM
SKOV-3 cells; Homo sapiens
  viability at 10 µM: 43%
SKOV-3 cells
  Selectivity index (SI), SKOV-3: 23.88
  IC50: 2190 ± 164 nM

## O=C(N/N=C/c1cccc(-c2ccccc2)c1)c1ccc(Nc2ncnc3c2ncn3C2CCCC2)cc1 [19b, (E)-N′-((1,1′-biphenyl)-3-ylmethylene)-4-((9-cyclopentyl-9H-purin-6-yl)amino)benzohydrazide]
SKBR-3 cells; Homo sapiens, SK-BR-3, 48 h
  IC50: 3200 ± 899 nM
A549 cells [1]; [6]
  IC50: 1840 ± 82 nM
SKOV-3 cells; Homo sapiens, SK-OV-3, 48 h
  IC50: 15600 ± 1480 nM

## NS(=O)(=O)c1cc(/C=N/NC(=O)c2ccc(Nc3ncnc4c3ncn4C3CCCC3)cc2)ccc1F [22b, (E)-5-((2-(4-((9-cyclopentyl-9H-purin-6-yl)amino)benzoyl)hydrazineylidene)methyl)-2-fluorobenzenesulfonamide]
A549 cells [3]
  percentage of live cells: 72.51%
  Apoptosis, Early: 5.92% and 5.92 ± 0.74 %
  Apoptosis, Late: 18.21% and 18.21 ± 0.12 %
  Necrosis: 3.35 ± 0.49%
EGFR
  IC50: 70 nM and 74 nM
A549 cells [4]
  Cell cycle comment: arrests the cell cycle at the G1 phase; also recorded: Cell cycle arrest@G1
  DNA Content (%) %G0–G1: 77.0% and 77.04% and 77.04 ± 1.85 %
  DNA Content (%) %G2/M: 4.4% and 4.35% and 4.35 ± 0.29 %
  DNA Content (%) %S: 18.6% and 18.60 ± 2.00 %
  Cell Cycle Distribution Index (CDI): 0.29
SKBR-3 cells; Homo sapiens, SK-BR-3, 48 h
  IC50: 3800 ± 1400 nM
SKBR-3 cells
  Selectivity index (SI), SKBR-3: 15.94
  IC50: 3800 ± 1400 nM
A549 cells [1]; [6]
  IC50: 3950 ± 615 nM
A549 cells [1]
  viability at 10 µM: 35%
  Selectivity index (SI), A549: 15.34
[5]
  IC50 at 48 h: 60590 ± 329 nM
A2780 cells
  viability at 10 µM: 47%
HER2
  IC50: 30 nM and 33 nM
SKOV-3 cells; Homo sapiens, SK-OV-3, 48 h
  IC50: 1540 ± 470 nM
SKOV-3 cells; Homo sapiens
  viability at 10 µM: 31%
SKOV-3 cells
  Selectivity index (SI), SKOV-3: 39.32
  IC50: 1540 ± 470 nM

## O=C(N/N=C/c1cccc2ccccc12)c1ccc(Nc2ncnc3nc[nH]c23)cc1 [23a, (E)-4-((7H-Purin-6-yl)amino)-N′-(naphthalen-1-ylmethylene) benzohydrazide]
A549 cells [1]
  viability at 10 µM: 74%
SKOV-3 cells; Homo sapiens
  viability at 10 µM: 92%

## C#Cc1cccc(Nc2ncnc3cc(OCCOC)c(OCCOC)cc23)c1 [Erlotinib, erlotinib, reference compound]
SKBR-3 cells; Homo sapiens, SK-BR-3, 48 h
  IC50: 5120 ± 879 nM
A549 cells [1]; read-out: Cytotoxicity (IC50), A549
  IC50: 2420 ± 784 nM
A549 cells [1]
  viability at 10 µM: 48%
[5]
  IC50 at 48 h: 19360 ± 138 nM
A2780 cells
  viability at 10 µM: 39%
SKOV-3 cells; Homo sapiens, SK-OV-3, 48 h
  IC50: 5180 ± 1200 nM
SKOV-3 cells; Homo sapiens
  viability at 10 µM: 44%

## CS(=O)(=O)CCNCc1ccc(-c2ccc3ncnc(Nc4ccc(OCc5cccc(F)c5)c(Cl)c4)c3c2)o1 [Lapatinib, lapatinib, reference compound]
SKBR-3 cells; Homo sapiens, SK-BR-3, 48 h
  IC50: 8540 ± 640 nM
A549 cells [1]; [6]
  IC50: 11600 ± 249 nM
[5]
  IC50 at 48 h: 43940 ± 420 nM
SKOV-3 cells; Homo sapiens, SK-OV-3, 48 h
  IC50: 17000 ± 2570 nM
